In article PMC11963983 (2025):

System: ΔSite1-PK-riboCdA (RNA, riboswitch) GGGAAGACAAACAUGCCGAAUCCGAAAGGUACCGAGGAACCGCUUUUUGGCGCUAAUCUGCUGUGAAGCAGCAGUAGGGAUACCUUCUGUCCCGCGCGCGACAGCUAACUCGGGAGGGCAUAAAGGAAGGAGAUUUGCAGUG
Assay: smFRET, high-FRET
Conditions: 50 mM Na+, 0.75 mM Mg2+; 10 mM Tris-HCl pH 8.0, room temperature

EC50: ~ 78.9 μM
SMILES: Nc1ncnc2c1ncn2[C@@H]1O[C@@H]2COP(=O)(O)O[C@H]3[C@@H](O)[C@H](n4cnc5c(N)ncnc54)O[C@@H]3COP(=O)(O)O[C@H]2[C@H]1O
